Measurements reported in patent US8609698B2, “Substituted dipyridyl-dihydropyrazolones and use thereof” (Bayer Intellectual Property GmbH, priority 2006, dated 2013).
Where a name gives a salt, the structure may show the parent alone.

Molecular target: HIF prolyl hydroxylase
Test: Inhibition of the activity of HIF prolyl hydroxylase (VBC complex binding test)
Type: biochemical
From the text: 1. In Vitro Tests for Determination of the Activity and Selectivity of HIF Prolyl 4-Hydroxylase Inhibitors 1.a) Inhibition of the Activity of HIF Prolyl Hydroxylase:
Hydroxylated HIF bonds specifically to the von Hippel-Lindau protein-elongin B-elongin C complex (VBC complex). This interaction occurs only if HIF is hydroxylated on a conserved prolyl radical. It is the basis for the biochemical determination of HIF prolyl hydroxylase activity.
A clear 96-well microtiter plate coated with NeutrAvidin HBC (Pierce) is incubated with blocker casein for 30 minutes. The plate is then washed three times with 200 μl each time of wash buffer (50 mM Tris, pH 7.5, 100 mM NaCl, 10% (v/v) blocker casein, 0.05% (v/v) Tween 20) per well. […] This peptide serves as a substrate for the prolyl hydroxylation and is bonded to the microtiter plate. After incubation for 60 minutes, the plate is washed three times with wash buffer, incubated with 1 mM biotin in blocker casein for 30 minutes and then washed again three times with wash buffer.
To carry out the prolyl hydroxylase reaction, the peptide substrate bonded to the plate is incubated with a cell lysate containing prolyl hydroxylase for 1 to 60 minutes. The reaction takes place in 100 μl reaction buffer (20 mM Tris, pH 7.5, 5 mM KCl, 1.5 mM MgCl2, 1 μM-1 mM 2-oxoglutarate, 10 μM FeSO4, 2 mM ascorbate) at room temperature. The reaction mixture moreover contains various concentrations of the prolyl hydroxylase inhibitor to be tested. The test substance is preferably, but not exclusively, employed at concentrations of between 1 nM and 100 μM. The reaction is stopped by washing the plate three times with wash buffer.
For quantitative determination of the prolyl hydroxylation, a fusion protein which contains both thioredoxin from E. coli and the VBC complex in 80 μl bonding buffer (50 mM Tris, pH 7.5, 120 mM NaCl) is added. After 15 minutes, 10 μl of a solution of polyclonal anti-thioredoxin antibodies from rabbit in bonding buffer are added. After a further 30 minutes, 10 μl of a solution of anti-rabbit immunoglobulin coupled to horseradish peroxidase in bonding buffer are added. After incubation at room temperature for 30 minutes, the plate is washed three times with wash buffer in order to remove non-bonded VBC complex and antibodies. To determine the amount of bonded VBC complex, the plate is incubated with TMB for 15 minutes. The color reaction is ended by addition of 100 μl 1 M sulfuric acid. The amount of bonded VBC complex is determined by measurement of the optical density at 450 nm. It is proportional to the amount of hydroxylated proline in the peptide substrate.
Alternatively, a VBC complex coupled to europium (Perkin Elmer) can be used for detection of the prolyl hydroxylation. In this case, the amount of bonded VBC complex is determined by the fluorescence with respect to time. The use of VBC complex labeled with [^35S]-methionine is moreover possible. For this, the radioactively labeled VBC complex can be prepared by in vitro transcription-translation in reticulocyte lysate.

Row | Compound | IC50 [µM]
1 | O=c1c(-c2cccnc2)c[nH]n1-c1ccc(Cn2cccc2)cn1 [Example 22, 4-Pyridin-3-yl-2-[5-(1H-pyrrol-1-ylmethyl)pyridin-2-yl]-1,2-dihydro-3H-pyrazol-3-one hydrochloride] | 3.24
2 | O=C(NCc1ccnc(-n2[nH]cc(-c3cccnc3)c2=O)c1)Nc1c(Cl)cccc1Cl [Example 65] | 0.9
3 | Cc1ccnc(-n2[nH]cc(-c3cncc(C#N)c3)c2=O)c1 [Example 8, 5-[2-(4-Methylpyridin-2-yl)-3-oxo-2,3-dihydro-1H-pyrazol-4-yl]pyridine-3-carbonitrile hydrochloride] | 5.2
4 | COCCNCc1ccc(-n2[nH]cc(-c3cccnc3)c2=O)nc1 [Example 5, 2-(5-{[(2-Methoxyethyl)amino]methyl}pyridin-2-yl)-4-pyridin-3-yl-1,2-dihydro-3H-pyrazol-3-one hydrochloride] | 6.3
5 | O=C(O)c1ccc(-n2[nH]cc(-c3cncc(Br)c3)c2=O)nc1 [Example 10, 6-[4-(5-Bromopyridin-3-yl)-5-oxo-2,5-dihydro-H-pyrazol-1-yl]pyridine-3-carboxylic acid hydrochloride] | 0.26
6 | CC(C)(C)NC(=O)c1ccc(-n2[nH]cc(-c3cccnc3)c2=O)nc1 [Example 18, N-tert-Butyl-6-(5-oxo-4-pyridin-3-yl-2,5-dihydro-1H-pyrazol-1-yl)pyridine-3-carboxamide hydrochloride] | 0.91
7 | Cc1ccccc1NC(=O)OCc1ccc(-n2[nH]cc(-c3cccnc3)c2=O)nc1 [Example 80] | 1.6
